For experiment [1], the system named is C57B mice carrying full-thickness skin wounds. Kind of experiment: Effect of systemic Aza-dC treatment (injection) on wound healing and hair follicle regeneration. It counts as in vivo. An excerpt:
Determining the Effect of Systemic Aza-dC Treatment on Wound Healing and Regeneration:
The dermis was fixed in acetone overnight.

Experiment [2] has the same test system. Kind of experiment: Effect of topical Aza-dC treatment on wound healing and hair follicle regeneration. The format is in vivo. The settings on record: for hair follicle (HF) neogenesis compared to the vehicle control / hair follicle regeneration: topical; for hair follicle (HF) neogenesis compared to the vehicle control: once a day for 2 consecutive days (SD0 & SD1); for hair follicle regeneration: once a day for 5 consecutive days. The source says:
Determining the Effect of Topical Aza-dC Treatment on Wound Healing and Regeneration: […]

“Also recorded” adds a separate entry of the source.

As to `Nc1ncn([C@H]2C[C@H](O)[C@@H](CO)O2)c(=O)n1` [Aza-dC, 5-aza-2′-deoxycytidine], the “regeneration of hair follicles in healed wounds” value in experiment [1] (injection, 30 μg per gram body weight once a day for 5 consecutive days (SD0 to SD4)) was “greatly inhibited”. Further, the hair follicle regeneration result is reported as “no effect” in experiment [1] (single injection of 30 μg per gram body weight on SD0); “inhibition on hair follicle regeneration; also recorded: greatly inhibited” in experiment [1] (single injection of 30 μg per gram body weight on SD1); “little effect” in experiment [2] (1 μg); “little effect” in experiment [2] (5 μg); “still enhanced” in experiment [2] (10 μg). Also, in experiment [2] (topical application, unlike systemic treatment), the “inhibitory effect on wound-induced hair follicle regeneration” value was “little inhibitory effect”. In addition, in experiment [2] (topical treatment extended to 5 days (SD0 to SD4)), the “stimulatory effect on regeneration” value was “diminished”. For the same molecule, the “hair follicle (HF) neogenesis compared to the vehicle control” value is given as “greatly enhanced” in experiment [2] (all doses tested) and “strongest enhancement” in experiment [2] (highest tested dose 10 μg).
